We go through 5 compounds from patent publication EP1257261B1, “ANTIVIRAL PHARMACEUTICAL COMPOSITIONS CONTAINING IRON CHELATORS” (Faculteit Geneeskunde Universiteit Utrecht, priority 1999, dated 2001).

Where two headings read alike, the source gives them in different places.

The IC50 is the concentration needed to halve the response being measured.

Data set [1] concerns PBL. Nature of the data set: Cytotoxicity in PBL, MTT assay. As to conditions: 5 days incubation. The data set is classed as cell-based, human. The protocol:
(§1) Peripheral Blood Mononuclear Cell (PBMC) fractions were isolated from heparinized blood from HIV-1-, HIV-2- and hepatitis B-seronegative donors (Bloodbank, Utrecht, The Netherlands) by Ficoll-Isopaque gradient separation. Cells were washed twice and were then either subjected to counter-current centrifugal elutriation, or monocytes in the PBMC fraction were allowed to adhere to fibronectin-coated flasks before the PBL fraction was harvested. […] After PHA stimulation the PBL were cultured in medium containing 10 U/ml human recombinant IL-2 (Boehringer, Mannheim, Germany).
(§2) Possible cytotoxicity of DF, L1 or BLM was monitored by the MTT [3-(4,5 dimethylthiazol-2-yl)-2,5-diphenyltetrazolium bromide] (Sigma) assay.
(§3) Results are the average of 3 experiments in duplicate (statistical analysis using repeated ANOVA and student Newman-Keuls test, *p<0.05).
as §3, §3
For orientation: Formazan colour is commonly taken as a measure of viable cells.

For data set [2], the system named is HIV-1Ba-L. Nature of the data set: Drug combination studies, p24 inhibition in HIV-infected PBL, median-effect / combination index (CalcuSyn). As to conditions: 5 days; for IC50: Human immunodeficiency virus 1, 120 h, read-out: IC50 (p24-antigen inhibition). The data set is classed as cell-based.
Description: Three separate experiments were performed substantially as described in the section HIV infection and p24 measurements. Multiply-diluted fixed-ratio combinations of the drugs, or single drugs were added to each incubation point. The IC50 (inhibitory concentration) of each drug was calculated using the computer software program CalcuSyn. The combined-drug effect was evaluated by the median-effect principle and the isobologram method. This method involves the plotting of the dose-effect curve for each drug alone and in combination. The slope of the median-effect plot and the x intercept of the plot were then used for the computerized calculation of a combination index (CI). The CI values were based on the classic isobologram equation and CI values of <1, 1 and >1 indicate synergism (greater than the expected additive effect), additive effects and antagonism (less than the expected additive effect). Fraction affected (fa) was calculated for every drug combination and for each drug alone after p24 measurements in infected PBL incubated for 5 days with the examined compounds (see HIV infection and p24 measurements).
CT < 1, = 1 and > 1 represent synergistic, additive and antagonistic effects, respectively. The subdivision within the synergistic area (CI >0.7, 0.3-0.7 and <0.3 implying moderate synergism, synergism, and strong synergism respectively) is according to Chou and Talalay. The parameters are obtained using the median effect equation of Chou and Talalay and the CalcuSync computer software programme as described in materials and methods.
Peripheral blood lymphocytes (PBL) were infected for 2 hours with HIV-1Ba-L at an MOI of 0.001. The cells were subsequently washed 2 times to remove an excess in virus and subsequently incubated for 5 days with only BLM, only ritonavir or various combinations of the two substances. Virus in the supernatant of the cell cultures was inactivated in a final concentration of 0.05% empigen and the presence of HIV-1 in the inactivated supernatant was measured by determining the p24 antigen with enzyme-linked immunosorbent assay (ELISA). […]
Data set [3] concerns PBL. Nature of the data set: Lymphocyte proliferation, overnight 3H-thymidine incorporation. The data set is classed as cell-based, human. As to conditions: concentrations studied, 4 days incubation then overnight 3H-TdR. The text has this: Peripheral Blood Mononuclear Cell (PBMC) fractions were isolated from heparinized blood from HIV-1-, HIV-2- and hepatitis B-seronegative donors (Bloodbank, Utrecht, The Netherlands) by Ficoll-Isopaque gradient separation. Cells were washed twice and were then either subjected to counter-current centrifugal elutriation, or monocytes in the PBMC fraction were allowed to adhere to fibronectin-coated flasks before the PBL fraction was harvested. Monocytes were of >95% purity by criteria of cell morphology on May-Grunwald-Giemsa-stained cytosmears and by non-specific esterase staining using (α-naphthylacetate (Sigma Chemical Co., St. Louis, MO) and PBL >85% purity by May-Grunwald-Giemsa-staining. Viability of both cell types was >95% at the point of experiment initiation as determined by trypan-blue exclusion. Isolated monocytes were cultured in suspension at a concentration of 2 x 10^6 cells/ml in teflon flasks minimizing adherence (Nalgene, Rochester, NY) and allowed to differentiate for 7 days. MDM medium consisted of Dulbecco's modified Eagle's medium supplemented with 10% heat-inactivated human AB serum, negative for anti-HIV antibodies (Bloodbank Utrecht, NL), 10 µg/ml gentamycin (Life Technologies Ltd, Paisley, Scotland), 5 µg/ml ciprofloxacin (Beyer, Leverkusen, Germany), 0.6 mg/ml L-glutamine (Sigma) and 3.4 g/L bicarbonate (Merck, Darmstadt, Germany). […]
For orientation: Uptake of a labelled nucleoside into DNA is a usual measure of proliferation.

The subject of data set [4] is HIV-1Ba-L. Nature of the data set: HIV-1 replication in MDM, p24 ELISA of culture supernatant. The data set is classed as cell-based. As to conditions: 5 days. The text has this: (§4) Peripheral Blood Mononuclear Cell (PBMC) fractions were isolated from heparinized blood from HIV-1-, HIV-2- and hepatitis B-seronegative donors (Bloodbank, Utrecht, The Netherlands) by Ficoll-Isopaque gradient separation. Cells were washed twice and were then either subjected to counter-current centrifugal elutriation, or monocytes in the PBMC fraction were allowed to adhere to fibronectin-coated flasks before the PBL fraction was harvested. Monocytes were of >95% purity by criteria of cell morphology on May-Grunwald-Giemsa-stained cytosmears and by non-specific esterase staining using (α-naphthylacetate (Sigma Chemical Co., St. Louis, MO) and PBL >85% purity by May-Grunwald-Giemsa-staining. Viability of both cell types was >95% at the point of experiment initiation as determined by trypan-blue exclusion. Isolated monocytes were cultured in suspension at a concentration of 2 x 10^6 cells/ml in teflon flasks minimizing adherence (Nalgene, Rochester, NY) and allowed to differentiate for 7 days. MDM medium consisted of Dulbecco's modified Eagle's medium supplemented with 10% heat-inactivated human AB serum, negative for anti-HIV antibodies (Bloodbank Utrecht, NL), 10 µg/ml gentamycin (Life Technologies Ltd, Paisley, Scotland), 5 µg/ml ciprofloxacin (Beyer, Leverkusen, Germany), 0.6 mg/ml L-glutamine (Sigma) and 3.4 g/L bicarbonate (Merck, Darmstadt, Germany). Isolated PBL was stimulated to proliferate for 3 days with 4 µg/ml phytohemagglutinin (PHA; Sigma) in RPMI-1640 (Life Technologies Ltd.) medium supplemented with 10% heat inactivated fetal calf serum (Life Technologies Ltd.) and 10 µg/ml gentamycin. After PHA stimulation the PBL were cultured in medium containing 10 U/ml human recombinant IL-2 (Boehringer, Mannheim, Germany). All incubations were carried out in flat-bottomed 96-well plates at 37 °C, 5% CO2 and 95% air.
(§5) Cells were infected for 2 hours with HIV-1Ba-L. Macrophages were infected with a multiplicity of infection (MOI) of 0.005 and lymphocytes with an MOI of 0.001. The cells were then washed twice to remove excess virus and subsequently incubated with either DF (Novartis Pharma, Arnhem, The Netherlands), L1 (from Duchefa Farma B.V., Haarlem, The Netherlands) or BLM (H. Lundbeck A/S, Copenhagen, Denmark) for a period of 5 days. Virus in culture supernatant was inactivated in a final concentration of 0.05% empigen (Calbiochem-Novabiochem Co., La Jolla, CA). The presence of HIV-1 in the inactivated supernatant was monitored by checking for the p24-core antigen by enzyme-linked immunosorbent assay (ELISA).
(§6) For the HIV-1 replication measurements cells were infected for 2 hours with HIV-1Ba-L at an MOI of 0.001; the cells were subsequently washed 2 times and incubated with different compound concentrations. After 5 days supernatant was harvested for p24 ELISA; Virus replication was expressed as % p24 reduction after compound incubations, compared to p24 measured from control HIV-infected cells incubated in the absence of compounds (set at 100% p24). Cytotoxicity was measured by the MTT test and is represented as % viable cells after 5 days compound incubations, compared to viable cells from control HIV-infected cells incubated in the absence of compounds (set at 100% viable cells). Results are the average of 3 experiments in duplicate (statistical analysis using repeated ANOVA and student Newman-Keuls test, *p<0.05). 100% p24 production represents 1.2 ng p24/ml.

The test system of another data set is MDM. The data set is described as follows: Cytotoxicity in MDM, MTT assay. As to conditions: 5 days. The data set is classed as cell-based, human. The protocol:
as §1, §2
as §6, with “*p<0.05).” for “*p<0.05). 100% p24 production represents 1.2 ng p24/ml.”

In data set [5] the test system is HIV-1Ba-L. Nature of the data set: HIV-1 replication in PBL, p24 ELISA of culture supernatant. The data set is classed as cell-based.
Text: as §4, §5
For the HIV-1 replication measurements cells were infected for 2 hours with HIV-1Ba-L at an MOI of 0.001; the cells were subsequently washed 2 times and incubated with different DF concentrations. After 5 days, supenatant was harvested for p24 ELISA. Virus replication was expressed as % p24 reduction after DF incubations, compared to p24 measured from control HIV-infected cells incubated in the absence of DF (set at 100% p24). Cytotoxicity was measured by the MTT test and is represented as % viable cells after 5 days DF incubations, compared to viable cells from control HIV-infected cells incubated in the absence of DF (set at 100% viable cells). PBL proliferation was measured by overnight ^3H-thymidine incorporation after DF was incubated for 4 days with cells; it is represented as counts per minute (cpm) after DF incubations, compared to cpm from control cells, incubated in the absence of DF. Results are the average of 3 experiments in duplicate (statistical analysis using repeated ANOVA and student Newman-Keuls test, *p<0.05). 100% p24 production represents 19 ng p24/ml
For the HIV-I replication measurements cells were infected for 2 hours with HIV-1Ba-L at an MOI of 0.001; the cells were subsequently washed 2 times and incubated with different L1 concentrations. After 5 days, supernatant was harvested for p24 ELISA. […]

[6] abbreviates: single drug within the BLM-ritonavir combination experiment.
[7] abbreviates: 300 ng BLM/ml, control 1.2 ng p24/ml.
The mark [8] stands for this setting: single drug within the DF-ddI combination experiment.

bleomycin [BLM]: the “cytotoxicity (cell viability, MTT)” value in the data set on PBL [1] (concentrations studied) is on record as “not cytotoxic”; in the data set with MDM (concentrations studied), “not to affect cell viability”. In addition, the “IC50 (p24-antigen inhibition)” value in the data set on HIV-1Ba-L [2] (setting [6]) was 1.9 µg/mL. Moreover, the “cellular proliferation (3H-thymidine incorporation)” value in the data set on PBL [3] was “remained intact”. Besides, the “p24 level in culture supernatant” value in the data set on HIV-1Ba-L [4] (setting [7]) is on record as 0.6 ng p24/ml; in the data set on HIV-1Ba-L [5] (lower end of 3-300 ng BLM/ml range (20% reduction), n=3, control 19 ng p24/ml) it was 15 ng p24/ml; in the data set with HIV-1Ba-L [5] (upper end of 3-300 ng BLM/ml range (50% reduction), n=3, control 19 ng p24/ml), 9.5 ng p24/ml. The “reduction of p24 levels” value in the data set on HIV-1Ba-L [4] (setting [7]) was 50%. For the same compound, in the data set with HIV-1Ba-L [5] (3-300 ng BLM/ml, 5 days, n=3, control 19 ng p24/ml), the “reduction of HIV-1 replication (p24)” value is on record as 20-50%.

For `CC(C)c1nc(CN(C)C(=O)N[C@H](C(=O)N[C@@H](Cc2ccccc2)C[C@H](O)[C@H](Cc2ccccc2)NC(=O)OCc2cncs2)C(C)C)cs1` [ritonavir], the IC50 with HIV-1Ba-L [2] (setting [6]) is 0.04 µM.

Regarding `CC(=O)N(O)CCCCCNC(=O)CCC(=O)N(O)CCCCCNC(=O)CCC(=O)N(O)CCCCCN` [DF, deferoxamine], the “cytotoxicity (cell viability, MTT)” value in the data set on PBL [1] (100 µM) is reported as “cytotoxic”; in the data set with MDM (concentrations around 100 µM), “onset of cytotoxicity”. In addition, the IC50 in the data set on HIV-1Ba-L [2] (setting [8]) was 8.5 µM. In addition, in the data set with HIV-1Ba-L [4] (Human immunodeficiency virus 1, 120 h, concentrations around 100 µM, control 1.2 ng p24/ml, read-out: reduction of viral replication (p24)), the inhibition at 100 µM was ≤ 50%. For the same compound, the “p24 level in culture supernatant” value came to 0.6 ng p24/ml in the data set on HIV-1Ba-L [4] (concentrations around 100 µM, control 1.2 ng p24/ml); 11 ng p24/ml in the data set on HIV-1Ba-L [5] (3 µM, 5 days, control 19 ng p24/ml); 1.9 ng p24/ml with HIV-1Ba-L [5] (30 µM, 5 days, n=3, control 19 ng p24/ml). Further, the inhibition at 3 µM with HIV-1Ba-L [5] (Human immunodeficiency virus 1, 120 h, 3 µM, 5 days incubation, n=3, p<0.05, control 19 ng p24/ml, read-out: reduction in viral replication (p24)) was found to be 40%. Moreover, the inhibition at 30 µM with HIV-1Ba-L [5] (Human immunodeficiency virus 1, 120 h, 30 µM, 5 days, n=3, control 19 ng p24/ml, read-out: reduction of p24 levels) was > 90%.

Consider `Cc1c(O)c(=O)ccn1C` [L1, deferiprone], for which the “cytotoxicity (cell viability, MTT)” value in the data set on PBL [1] (100 µM) and in the data set on MDM (concentrations studied) was “not cytotoxic” throughout. For the same compound, the “cellular proliferation (3H-thymidine incorporation)” value in the data set with PBL [3] is “decrease in proliferation”. The “up-regulation of p24 antigen production” value with HIV-1Ba-L [4] (30 µM) is listed as “up to two fold”. Also, the “HIV-1 replication (p24)” value with HIV-1Ba-L [5] (100 µM, 5 days) is “reduced to minimal levels”. Also, the p24 antigen production result with HIV-1Ba-L [5] (lower compound concentrations (below 100 µM), 5 days) is given as “subtle increase”.

Consider `O=c1[nH]cnc2c1ncn2[C@H]1CC[C@@H](CO)O1` [ddI, dideoxyinosine], for which, in the data set on HIV-1Ba-L [2] (setting [8]), the IC50 is 3.7 µM.
